Laboratory results from patent publication US20230085307A1, “PYRIDAZINONE COMPOUND AND HERBICIDE” (NISSAN CHEMICAL CORPORATION, priority 2019, published 2023).

Tests used:
[1] = system: Italian ryegrass; test: Test Example 5: herbicidal effect by foliage application, plastic box (Table 20, symbol K); type: in vivo, Italian ryegrass (Lolium multiflorum); settings: foliage application, 320 g/ha, 3 weeks after application
Outline: (§1)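 Post-emergence foliar test in sterilized diluvial soil. Compound applied as water-diluted emulsion at a predetermined rate to 14-day-old plants; evaluation at three weeks.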

[2] = system: windgrass; test: Test Example 5: herbicidal effect by foliage application, plastic box (Table 20, symbol L); type: in vivo, windgrass (Apera spica-venti); settings: foliage application, 320 g/ha, 3 weeks after application
Outline: as §1

[3] = system: rice flat sedge; test: Test Example 3: herbicidal effect by foliage application, Wagner pot (Table 18, symbol E); type: in vivo, rice flat sedge (Cyperus iria); settings: 320 g/ha
Outline: (§2)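 Plants were sown in alluvial soil held under 0.1–0.5 cm standing water and grown 14 days in a greenhouse at 25–30 °C. An emulsifiable formulation, water-diluted to the set dose, was then sprayed onto the foliage, and effects were scored three weeks later using previously defined criteria.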

[4] = system: lambsquarters; test: Test Example 4: herbicidal effect by soil treatment (Table 19, symbol O); type: in vivo, lambsquarters (Chenopodium album); settings: 320 g/ha
Outline: (§3)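 Emulsion of test compound, water-diluted to predetermined amount, sprayed on soil after sowing (seed depth ~1.5 cm, sterilized diluvial soil). Greenhouse, 25–30° C. Effect graded at three weeks post-spray.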

[5] = system: windgrass; test: Test Example 4: herbicidal effect by soil treatment (Table 19, symbol L); type: in vivo, windgrass (Apera spica-venti); settings: 320 g/ha
Outline: as §3

[6] = system: wild oat; test: Test Example 5: herbicidal effect by foliage application, plastic box (Table 20, symbol I); type: in vivo, wild oat (Avena fatua); settings: foliage application, 320 g/ha, 3 weeks after application
Outline: as §1

[7] = system: barnyard grass; test: Test Example 3: herbicidal effect by foliage application, Wagner pot (Table 18, symbol H); type: in vivo, barnyard grass (Echinochloa crus-galli); settings: 320 g/ha
Outline: as §2

[8] = system: green foxtail; test: Test Example 5: herbicidal effect by foliage application, plastic box (Table 20, symbol G); type: in vivo, green foxtail (Setaria viridis); settings: foliage application, 320 g/ha, 3 weeks after application
Outline: as §1

[9] = system: persian speedwell; test: Test Example 4: herbicidal effect by soil treatment (Table 19, symbol R); type: in vivo, Persian speedwell (Veronica persica); settings: 320 g/ha
Outline: as §3

[10] = system: barnyard grass; test: Test Example 4: herbicidal effect by soil treatment (Table 19, symbol H); type: in vivo, barnyard grass (Echinochloa crus-galli); settings: 320 g/ha
Outline: as §3

[11] = system: Italian ryegrass; test: Test Example 4: herbicidal effect by soil treatment (Table 19, symbol K); type: in vivo, Italian ryegrass (Lolium multiflorum); settings: 320 g/ha
Outline: as §3

[12] = system: redroot pigweed; test: Test Example 4: herbicidal effect by soil treatment (Table 19, symbol N); type: in vivo, redroot pigweed (Amaranthus retroflexus); settings: 320 g/ha
Outline: as §3

[13] = system: green foxtail; test: Test Example 4: herbicidal effect by soil treatment (Table 19, symbol G); type: in vivo, green foxtail (Setaria viridis); settings: 320 g/ha
Outline: as §3

[14] = system: chickweed; test: Test Example 4: herbicidal effect by soil treatment (Table 19, symbol P); type: in vivo, common chickweed (Stellaria media); settings: 320 g/ha
Outline: as §3

[15] = system: persian speedwell; test: Test Example 5: herbicidal effect by foliage application, plastic box (Table 20, symbol R); type: in vivo, Persian speedwell (Veronica persica); settings: foliage application, 320 g/ha, 3 weeks after application
Outline: as §1

[16] = system: blackgrass; test: Test Example 4: herbicidal effect by soil treatment (Table 19, symbol J); type: in vivo, blackgrass (Alopecurus myosuroides); settings: 320 g/ha
Outline: as §3

[17] = system: velvetleaf; test: Test Example 4: herbicidal effect by soil treatment (Table 19, symbol M); type: in vivo, velvetleaf (Abutilon theophrasti); settings: 320 g/ha
Outline: as §3

[18] = system: lambsquarters; test: Test Example 5: herbicidal effect by foliage application, plastic box (Table 20, symbol O); type: in vivo, lambsquarters (Chenopodium album); settings: foliage application, 320 g/ha, 3 weeks after application
Outline: as §1

[19] = system: barnyard grass; test: Test Example 5: herbicidal effect by foliage application, plastic box (Table 20, symbol H); type: in vivo, barnyard grass (Echinochloa crus-galli); settings: foliage application, 320 g/ha, 3 weeks after application
Outline: as §1

[20] = system: Chinese sprangletop; test: Test Example 3: herbicidal effect by foliage application, Wagner pot (Table 18, symbol D); type: in vivo, chinese sprangletop (Leptochloa chinensis); settings: 320 g/ha
Outline: as §2

[21] = system: wild oat; test: Test Example 4: herbicidal effect by soil treatment (Table 19, symbol I); type: in vivo, wild oat (Avena fatua); settings: 320 g/ha
Outline: as §3

[22] = system: velvetleaf; test: Test Example 5: herbicidal effect by foliage application, plastic box (Table 20, symbol M); type: in vivo, velvetleaf (Abutilon theophrasti); settings: foliage application, 320 g/ha, 3 weeks after application
Outline: as §1

[23] = system: blackgrass; test: Test Example 5: herbicidal effect by foliage application, plastic box (Table 20, symbol J); type: in vivo, blackgrass (Alopecurus myosuroides); settings: foliage application, 320 g/ha, 3 weeks after application
Outline: as §1

[24] = system: southern crabgrass; test: Test Example 5: herbicidal effect by foliage application, plastic box (Table 20, symbol F); type: in vivo, southern crabgrass (Digitaria ciliaris); settings: foliage application, 320 g/ha, 3 weeks after application
Outline: as §1

[25] = system: southern crabgrass; test: Test Example 4: herbicidal effect by soil treatment (Table 19, symbol F); type: in vivo, southern crabgrass (Digitaria ciliaris); settings: 320 g/ha
Outline: as §3

Structure (SMILES): Cc1nn(C)c(=O)c(-c2c(-c3ccc(OC(F)(F)F)cc3)sc3ccc(F)cc23)c1O [2-045]
- effect on Italian ryegrass (K) [1]: 5 (Herbicidal rate of 90% or more (almost completely withered))
- effect on windgrass (L) [2]: 5 (Herbicidal rate of 90% or more (almost completely withered))
- herbicidal effect on E (rice flat sedge), rating 0-5 [3]: 5 (Herbicidal rate of 90% or more (almost completely withered))
- herbicidal effect rating, O: lambsquarters [4]: 5 (Herbicidal rate of 90% or more (almost completely withered))
- herbicidal effect rating, L: windgrass [5]: 0 (Herbicidal rate of 5% or less (almost no effect))
- effect on wild oat (I) [6]: 0 (Herbicidal rate of 5% or less (almost no effect))
- herbicidal effect on H (barnyard grass), rating 0-5 [7]: 5 (Herbicidal rate of 90% or more (almost completely withered))
- effect on green foxtail (G) [8]: 5 (Herbicidal rate of 90% or more (almost completely withered))
- herbicidal effect rating, R: persian speedwell [9]: 5 (Herbicidal rate of 90% or more (almost completely withered))
- herbicidal effect rating, H: barnyard grass [10]: 1 (Herbicidal rate of 5% or more and less than 20%)
- herbicidal effect rating, K: Italian ryegrass [11]: 5 (Herbicidal rate of 90% or more (almost completely withered))
- herbicidal effect rating, N: redroot pigweed [12]: 4 (Herbicidal rate of 70% or more and less than 90%)
- herbicidal effect rating, G: green foxtail [13]: 4 (Herbicidal rate of 70% or more and less than 90%)
- herbicidal effect rating, P: chickweed [14]: 5 (Herbicidal rate of 90% or more (almost completely withered))
- effect on persian speedwell (R) [15]: 5 (Herbicidal rate of 90% or more (almost completely withered))
- herbicidal effect rating, J: blackgrass [16]: 0 (Herbicidal rate of 5% or less (almost no effect))
- herbicidal effect rating, M: velvetleaf [17]: 4 (Herbicidal rate of 70% or more and less than 90%)
- effect on lambsquarters (O) [18]: 5 (Herbicidal rate of 90% or more (almost completely withered))
- effect on barnyard grass (H) [19]: 5 (Herbicidal rate of 90% or more (almost completely withered))
- herbicidal effect on D (Chinese sprangletop), rating 0-5 [20]: 2 (Herbicidal rate of 20% or more and less than 40%)
- herbicidal effect rating, I: wild oat [21]: 0 (Herbicidal rate of 5% or less (almost no effect))
- effect on velvetleaf (M) [22]: 5 (Herbicidal rate of 90% or more (almost completely withered))
- effect on blackgrass (J) [23]: 0 (Herbicidal rate of 5% or less (almost no effect))
- effect on southern crabgrass (F) [24]: 0 (Herbicidal rate of 5% or less (almost no effect))
- herbicidal effect rating, F: southern crabgrass [25]: 3 (Herbicidal rate of 40% or more and less than 70%)
